Experimental data reported in ChEMBL document CHEMBL4393689, “Discovery of fluorescent coumarin-benzo[b]thiophene 1, 1-dioxide conjugates as mitochondria-targeting antitumor STAT3 inhibitors” (Eur J Med Chem, 2019).
Calls of active or inactive are those of the source. No cut-off for these calls is given here.

Columns and labels:
[1] = target: Signal transducer and activator of transcription 3 (Homo sapiens) (UniProt P40763); experiment: Inhibition of STAT3 in human MDA-MB-231 cells assessed as decrease in Bcl2 protein expression incubated for 24 hrs by Western blot analysis; type: cell-based
Sequence of Signal transducer and activator of transcription 3 (Homo sapiens) (P40763 whole entry): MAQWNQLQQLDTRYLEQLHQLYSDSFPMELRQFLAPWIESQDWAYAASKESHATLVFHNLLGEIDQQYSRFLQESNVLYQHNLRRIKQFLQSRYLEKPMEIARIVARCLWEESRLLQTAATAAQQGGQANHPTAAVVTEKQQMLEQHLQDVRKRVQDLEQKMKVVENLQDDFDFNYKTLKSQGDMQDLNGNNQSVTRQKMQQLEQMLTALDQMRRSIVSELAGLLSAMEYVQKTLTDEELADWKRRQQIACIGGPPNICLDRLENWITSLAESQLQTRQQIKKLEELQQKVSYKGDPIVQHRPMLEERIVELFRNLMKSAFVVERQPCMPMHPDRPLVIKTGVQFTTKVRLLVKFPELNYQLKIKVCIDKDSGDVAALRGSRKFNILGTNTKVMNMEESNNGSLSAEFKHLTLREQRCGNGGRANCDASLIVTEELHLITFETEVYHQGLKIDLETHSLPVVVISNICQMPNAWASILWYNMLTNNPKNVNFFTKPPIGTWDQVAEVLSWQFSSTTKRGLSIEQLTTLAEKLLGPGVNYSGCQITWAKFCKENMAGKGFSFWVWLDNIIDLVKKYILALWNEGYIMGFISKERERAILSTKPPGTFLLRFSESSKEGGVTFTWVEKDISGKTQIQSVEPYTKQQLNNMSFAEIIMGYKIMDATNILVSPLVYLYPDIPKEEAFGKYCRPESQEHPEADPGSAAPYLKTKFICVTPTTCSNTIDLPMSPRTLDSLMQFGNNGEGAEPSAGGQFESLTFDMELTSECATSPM

[2] = target: T1, Signal transducer and activator of transcription 1-alpha/beta (Homo sapiens) (UniProt P42224); experiment: Inhibition of STAT1 in human MDA-MB-231 cells assessed as decrease in STAT1 phosphorylation at Y701 residue at 1 to 4 uM incubated for 24 hrs by Western blot analysis; type: cell-based
T1 sequence (whole entry): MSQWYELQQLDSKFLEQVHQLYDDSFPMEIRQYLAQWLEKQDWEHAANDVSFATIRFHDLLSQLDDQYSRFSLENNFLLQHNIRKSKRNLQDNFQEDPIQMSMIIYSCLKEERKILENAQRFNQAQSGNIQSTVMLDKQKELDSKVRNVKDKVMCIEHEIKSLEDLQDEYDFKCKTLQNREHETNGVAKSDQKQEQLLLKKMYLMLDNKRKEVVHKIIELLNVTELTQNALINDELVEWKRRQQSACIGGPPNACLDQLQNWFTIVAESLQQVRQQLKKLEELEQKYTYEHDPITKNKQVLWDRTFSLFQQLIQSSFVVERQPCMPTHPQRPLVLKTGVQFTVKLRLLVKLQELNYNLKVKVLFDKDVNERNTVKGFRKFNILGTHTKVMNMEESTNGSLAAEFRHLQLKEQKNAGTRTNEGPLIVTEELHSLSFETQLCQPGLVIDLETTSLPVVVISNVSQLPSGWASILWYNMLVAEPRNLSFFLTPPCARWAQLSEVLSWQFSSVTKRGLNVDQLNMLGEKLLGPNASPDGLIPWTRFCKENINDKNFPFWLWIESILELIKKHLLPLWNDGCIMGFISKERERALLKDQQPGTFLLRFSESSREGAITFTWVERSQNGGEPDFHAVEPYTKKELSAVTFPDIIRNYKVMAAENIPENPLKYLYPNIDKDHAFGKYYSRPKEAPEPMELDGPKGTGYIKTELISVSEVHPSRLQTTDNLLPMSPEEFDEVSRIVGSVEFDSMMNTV

[3] = Drug accumulation in mitochondria of human MCF7 cells at 5 uM incubated for 60 mins by mitotracker red staining based confocal microscopy; type: ADME; details: mcf7, 1 h
MDA-MB-231 [4] = experiment: Potency index, ratio of IC50 of BTP to ratio of IC50 of compound for antiproliferative activity against human MDA-MB-231 cells assessed as reduction in cell viability incubated for 48 hrs by MTT assay; type: functional
L02 = experiment: Cytotoxicity against human LO2 cells assessed as reduction in cell viability incubated for 48 hrs by MTT assay; type: cell-based; details: L02, 48 h
4T1 [5] = experiment: Reduction in STAT3 phosphorylation at Tyr705 residue in mouse 4T1 cells implanted in BALB/c mouse at 10 to 20 mg/kg, ip for 14 days by Western blot analysis; type: functional, organism-based
MDA-MB-231 [6] = experiment: Induction of apoptosis in human MDA-MB-231 cells incubated for 24 hrs by annexinV-FITC and propidium iodide staining based flow cytometric analysis; type: functional, cell-based
HepG2 = experiment: Potency index, ratio of IC50 of BTP to ratio of IC50 of compound for antiproliferative activity against human HepG2 cells assessed as reduction in cell viability incubated for 48 hrs by MTT assay; type: functional
MDA-MB-231 [7] = experiment: Induction of apoptosis in human MDA-MB-231 cells assessed as necrotic cells at 4 uM incubated for 24 hrs by annexinV-FITC and propidium iodide staining based flow cytometric analysis (reference value: 0.8%); type: functional
[8] = Drug accumulation in mitochondria of human MDA-MB-231 cells at 2 uM incubated for 60 mins by mitotracker red staining based confocal microscopy; type: ADME; details: mda-mb-231, 1 h
MDA-MB-231 [9] = experiment: Induction of apoptosis in human MDA-MB-231 cells assessed as increase in cleaved caspase-3 levels at 1 to 4 uM incubated for 24 hrs by Western blot analysis; type: functional, cell-based
MDA-MB-231 [10] = experiment: Induction of apoptosis in human MDA-MB-231 cells assessed as viable cells at 1 uM incubated for 24 hrs by annexinV-FITC and propidium iodide staining based flow cytometric analysis (reference value: 95.1%); type: functional; details: MDA-MB-231, 24 h, read-out: Activity
[11] = Selectivity index, ratio of IC50 for human MCF10A cells to IC50 for human MDA-MB-231 cells; type: toxicity; details: MCF10A cells versus MDA-MB-231 cells, read-out: Ratio IC50
MDA-MB-231 [12] = experiment: Inhibition of colony formation in human MDA-MB-231 cells assessed as reduction in cell proliferation at 1 uM treated for 24 hrs and measured after 10 to 14 days by crystal violet staining based assay; type: functional
MDA-MB-231 [13] = experiment: Induction of apoptosis in human MDA-MB-231 cells assessed as viable cells at 2 uM incubated for 24 hrs by annexinV-FITC and propidium iodide staining based flow cytometric analysis (reference value: 95.1%); type: functional; details: MDA-MB-231, 24 h, read-out: Activity
4T1 [14] = experiment: Antitumor activity against mouse 4T1 cells implanted in BALB/c mouse assessed as reduction in tumor weight at 20 mg/kg, ip for 14 days; type: functional; details: 4T1, ip, 336 h
4T1 [15] = experiment: Antitumor activity against mouse 4T1 cells implanted in BALB/c mouse assessed as reduction in tumor volume at 10 mg/kg, ip for 14 days; type: functional; details: 4T1, ip, 336 h
MDA-MB-231 [16] = experiment: Induction of apoptosis in human MDA-MB-231 cells assessed as increase in cleaved PARP levels at 1 to 4 uM incubated for 24 hrs by Western blot analysis; type: functional, cell-based
MDA-MB-231 [17] = experiment: Induction of apoptosis in human MDA-MB-231 cells assessed as early apoptotic cells at 2 uM incubated for 24 hrs by annexinV-FITC and propidium iodide staining based flow cytometric analysis (reference value: 3.2%); type: functional
[18] = target: Signal transducer and activator of transcription 3 (Homo sapiens) (UniProt P40763); experiment: Inhibition of STAT3 in human MDA-MB-231 cells assessed as decrease in cyclin D1 protein expression incubated for 24 hrs by Western blot analysis; type: cell-based
MDA-MB-231 [19] = experiment: Induction of apoptosis in human MDA-MB-231 cells assessed as viable cells at 4 uM incubated for 24 hrs by annexinV-FITC and propidium iodide staining based flow cytometric analysis (reference value: 95.1%); type: functional; details: MDA-MB-231, 24 h, read-out: Activity
MDA-MB-231 [20] = experiment: Induction ROS accumulation in human MDA-MB-231 cells after 24 hrs by DCFH-DA staining-based flow cytometric analysis; type: functional, cell-based
MDA-MB-231 [21] = experiment: Induction of apoptosis in human MDA-MB-231 cells assessed as necrotic cells at 2 uM incubated for 24 hrs by annexinV-FITC and propidium iodide staining based flow cytometric analysis (reference value: 0.8%); type: functional
[22] = target: Proto-oncogene tyrosine-protein kinase Src (Homo sapiens) (UniProt P12931); experiment: Inhibition of Src in human MDA-MB-231 cells assessed as reduction in Src phosphorylation at 1 to 4 uM incubated for 24 hrs by Western blot analysis; type: cell-based
Sequence of Proto-oncogene tyrosine-protein kinase Src (Homo sapiens) (P12931 2-536 limits assumed): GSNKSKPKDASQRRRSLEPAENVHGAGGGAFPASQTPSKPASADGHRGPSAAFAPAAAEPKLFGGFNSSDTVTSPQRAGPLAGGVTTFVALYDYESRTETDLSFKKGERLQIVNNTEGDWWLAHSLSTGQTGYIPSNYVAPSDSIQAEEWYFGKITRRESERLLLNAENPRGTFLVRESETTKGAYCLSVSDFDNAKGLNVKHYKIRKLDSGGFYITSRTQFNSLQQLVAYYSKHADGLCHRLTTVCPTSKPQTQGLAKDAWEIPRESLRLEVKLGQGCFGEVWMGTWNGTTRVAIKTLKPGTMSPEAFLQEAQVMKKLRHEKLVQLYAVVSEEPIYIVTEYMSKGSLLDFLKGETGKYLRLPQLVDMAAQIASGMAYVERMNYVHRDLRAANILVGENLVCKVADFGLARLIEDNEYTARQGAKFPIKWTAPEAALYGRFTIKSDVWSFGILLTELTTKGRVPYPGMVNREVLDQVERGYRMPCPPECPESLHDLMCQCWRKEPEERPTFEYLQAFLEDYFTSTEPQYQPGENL

MDA-MB-231 [23] = experiment: Induction of apoptosis in human MDA-MB-231 cells assessed as early apoptotic cells at 4 uM incubated for 24 hrs by annexinV-FITC and propidium iodide staining based flow cytometric analysis (reference value: 3.2%); type: functional
HCT-116 = experiment: Antiproliferative activity against human HCT116 cells assessed as reduction in cell viability incubated for 48 hrs by MTT assay; type: functional, cell-based; details: HCT-116, 48 h

## CCN(CC)c1ccc2cc(C(=O)N3CCN(C(=O)C4=Cc5c(Br)cccc5S4(=O)=O)CC3)c(=O)oc2c1
[1]
  inhibition: Dose-dependent effect
[2]
  inhibition: inactive
[3]
  Drug uptake: Active
MDA-MB-231 [4]
  Ratio IC50: 4.6 - 19
L02
  IC50: 35.6 µM
4T1 [5]
  inhibition: Active
MDA-MB-231 [6]
  Activity: Dose-dependent effect
HepG2
  Ratio IC50: 4.6 - 19
MDA-MB-231 [7]
  Activity: 2.1%
[8]
  Drug uptake: Active
MDA-MB-231 [9]
  Activity: Active
MDA-MB-231 [10]
  viability at 1 µM: 92%
[11]
  selectivity ratio: 10.2
MDA-MB-231 [12]
  inhibition: Active
MDA-MB-231 [13]
  viability at 2 µM: 89.3%
4T1 [14]
  inhibition in vivo at 20 mg/kg: 56.9%
4T1 [15]
  inhibition in vivo at 10 mg/kg: 52.3%
MDA-MB-231 [16]
  Activity: Active
MDA-MB-231 [17]
  Activity: 7.4%
[18]
  inhibition: Dose-dependent effect
MDA-MB-231 [19]
  viability at 4 µM: 77.5%
MDA-MB-231 [20]
  Activity: Dose-dependent effect
MDA-MB-231 [21]
  Activity: 1.6%
[22]
  inhibition: inactive
MDA-MB-231 [23]
  Activity: 15.6%
HCT-116
  IC50: 1.89 µM
